Where a name gives a salt, the structure may show the parent alone.
Assay: Degradation (hydrolysis) of Compound I after wet granulation with water
Format: physicochemical
Conditions: granulation liquid deionized water; LOD value less than or equal to about 1% for the dried granulate
Method: Once blended, a granulation liquid, deionized water, is added for wet kneading. The impeller and chopper speeds are increased to setting 2 (e.g., 306 rpm and 500 rpm, respectively, for the impeller and chopper). The kneading is conducted at room temperature. After granulation, the moist granulates are dried in a fluid-bed dryer with an air inlet temperature of approximately 70° C. to obtain granulates. The moist granulates are dried such that there is a LOD value below 1.0%. The granulates are subsequently sieved using a screen with a mesh size of 1.25 mm or 0.8 mm. As mentioned above, Compound I is a salt of an ester which is potentially sensitive to hydrolysis in the presence of water.

CC(C)[C@H](N)C(=O)O[C@@H]1[C@@H](CO)O[C@@H](n2ccc(N)nc2=O)[C@]1(C)O [Compound I, dihydrochloride salt]
degradation, e.g., due to hydrolysis, after wet granulation: does not result in an increase in degradation

From patent publication US20080207533A1, “Pharmaceutical Compositions” (priority 2005, published 2008)
